Experiments:
[1] = Stability test of the solid dispersion comprising vitamin D (cholecalciferol content by HPLC, 60° C. dried oven); format: physicochemical
Description: The time-dependent change of the cholecalciferol content of each test material was analyzed using the solid dispersions prepared in Comparative Example 2 (0.07 mg of cholecalciferol) and Examples 1 to 4 as test materials, during the period of incubating the test materials in a 60° C. dried oven.
Each test material was pretreated as follows, before the analysis of cholecalciferol.
Each test material was taken in the amount corresponding to about 28 mg cholecalciferol and placed in a 50 ml flask, 5 ml of 0.01 M HCl was added thereto, the mixture was ultrasonicated for 3 minutes, and the flask was filled with ethanol. 15 ml of the resulting solution was mixed with 5 ml of purified water and 20 ml of n-hexane for 5 minutes, and centrifuged at 2000 rpm for 5 minutes. 10 ml of the supernatant was harvested, evaporated under a reduced pressure, and 2 ml of n-hexane was added thereto. The cholecalciferol content of each test material was analyzed by HPLC under the following conditions. The results are shown in Table 7. • Column: silica column (5 μm, 4.6 mm×250 mm) • Mobile phase: (chloroform: n-hexane: tetrahydrofuran=650:350:10 (v/v)) • Injecting volume: 100 μl • Flow rate: 1.0 ml/min • Detector: ultraviolet spectrophotometer (wavelength: 254 nm; L-7400, HITACHI, Japan)

[2] = preserved at 40° C. for 4 days; cited from earlier work

SMILES | cholecalciferol content ([1]; 2 weeks) [%] | cholecalciferol content ([1]; 4 weeks) [%] | cholecalciferol content ([1]; incubation time 0) [%] | content of vitamin D3 in the formulation, of the original content [2]
C=C1CC[C@H](O)C/C1=C/C=C1\CCC[C@]2(C)[C@@H]([C@H](C)CCCC(C)C)CC[C@@H]12 [Comparative Example 2, cholecalciferol] | 3.3 | 0.0 | 100 | 
C=C1CC[C@H](O)C/C1=C/C=C1\CCC[C@]2(C)[C@@H]([C@H](C)CCCC(C)C)CC[C@@H]12 [vitamin D3, cholecalciferol] |  |  |  | about 86.3%
